Paper PMC1084349 (BMC Neuroscience, 2005)
Where a SMILES comes first, the peptide text is derived from it.

Experiments:
rTas1r2-hTAS1R3 = target: T1, rTas1r2-hTAS1R3 (UniProt Q7RTX0+Q9Z0R7); experiment: Calcium mobilization (FLIPR), interspecies combination; conditions: asp 15 mM; cyc 30 mM; neo 0.1 mM; sac 10 mM; suc 100 mM; stev 1 mM; markedly reduced amplitudes
T1 sequence (Q9Z0R7 20-843): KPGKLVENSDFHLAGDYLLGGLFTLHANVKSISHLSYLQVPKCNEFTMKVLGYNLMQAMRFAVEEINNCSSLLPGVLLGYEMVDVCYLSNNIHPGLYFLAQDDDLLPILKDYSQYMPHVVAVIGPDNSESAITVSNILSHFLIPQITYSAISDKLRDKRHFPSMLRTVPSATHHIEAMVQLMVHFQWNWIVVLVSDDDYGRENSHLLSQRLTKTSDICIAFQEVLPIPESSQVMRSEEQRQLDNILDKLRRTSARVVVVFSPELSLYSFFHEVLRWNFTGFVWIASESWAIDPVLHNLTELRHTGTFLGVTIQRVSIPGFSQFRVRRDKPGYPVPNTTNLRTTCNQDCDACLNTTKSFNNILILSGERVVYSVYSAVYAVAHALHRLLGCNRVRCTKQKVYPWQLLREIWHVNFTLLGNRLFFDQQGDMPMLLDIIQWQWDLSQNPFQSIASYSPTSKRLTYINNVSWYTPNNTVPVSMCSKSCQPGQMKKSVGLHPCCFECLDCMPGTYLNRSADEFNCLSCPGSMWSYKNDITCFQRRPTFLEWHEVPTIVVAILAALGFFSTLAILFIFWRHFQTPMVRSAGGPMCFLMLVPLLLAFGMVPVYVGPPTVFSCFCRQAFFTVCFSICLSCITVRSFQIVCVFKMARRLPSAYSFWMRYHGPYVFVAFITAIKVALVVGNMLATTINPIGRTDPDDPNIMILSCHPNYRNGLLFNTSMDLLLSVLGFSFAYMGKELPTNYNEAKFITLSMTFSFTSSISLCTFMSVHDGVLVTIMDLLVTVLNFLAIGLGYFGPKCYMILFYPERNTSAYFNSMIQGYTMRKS
T1 sequence (Q7RTX0 21-852): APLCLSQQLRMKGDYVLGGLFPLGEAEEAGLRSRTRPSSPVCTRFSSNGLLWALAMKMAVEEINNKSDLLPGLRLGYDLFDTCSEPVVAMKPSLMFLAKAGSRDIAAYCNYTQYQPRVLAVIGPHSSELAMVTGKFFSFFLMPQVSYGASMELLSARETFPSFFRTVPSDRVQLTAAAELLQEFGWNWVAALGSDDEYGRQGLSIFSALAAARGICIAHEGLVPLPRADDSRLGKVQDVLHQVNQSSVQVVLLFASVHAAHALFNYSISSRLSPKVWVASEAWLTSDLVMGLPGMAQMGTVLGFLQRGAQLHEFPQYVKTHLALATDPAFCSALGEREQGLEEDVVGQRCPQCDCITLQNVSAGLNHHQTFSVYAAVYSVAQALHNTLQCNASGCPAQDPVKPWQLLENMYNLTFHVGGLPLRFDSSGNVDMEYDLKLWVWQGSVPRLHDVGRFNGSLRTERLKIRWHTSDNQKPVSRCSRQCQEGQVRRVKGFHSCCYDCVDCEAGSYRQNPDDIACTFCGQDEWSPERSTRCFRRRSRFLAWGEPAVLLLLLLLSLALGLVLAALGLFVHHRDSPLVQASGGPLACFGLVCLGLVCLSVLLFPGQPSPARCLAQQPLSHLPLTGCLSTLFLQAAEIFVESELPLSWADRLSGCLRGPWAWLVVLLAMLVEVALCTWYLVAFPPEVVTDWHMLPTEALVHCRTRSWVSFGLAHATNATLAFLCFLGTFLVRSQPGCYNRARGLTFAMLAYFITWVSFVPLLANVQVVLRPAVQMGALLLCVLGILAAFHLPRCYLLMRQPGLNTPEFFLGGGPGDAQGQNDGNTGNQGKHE

hTAS1R2-hTAS1R3 = target: T2, hTAS1R2-hTAS1R3 (Homo sapiens, UniProt Q7RTX0+Q8TE23); experiment: Calcium mobilization (FLIPR) in transfected HEK293T-Gα16gust44 cells, human sweet receptor; conditions: asp 15 mM; cyc 30 mM; neo 0.1 mM; sac 10 mM; suc 100 mM; stev 1 mM
T2 sequence (Q8TE23 20-839): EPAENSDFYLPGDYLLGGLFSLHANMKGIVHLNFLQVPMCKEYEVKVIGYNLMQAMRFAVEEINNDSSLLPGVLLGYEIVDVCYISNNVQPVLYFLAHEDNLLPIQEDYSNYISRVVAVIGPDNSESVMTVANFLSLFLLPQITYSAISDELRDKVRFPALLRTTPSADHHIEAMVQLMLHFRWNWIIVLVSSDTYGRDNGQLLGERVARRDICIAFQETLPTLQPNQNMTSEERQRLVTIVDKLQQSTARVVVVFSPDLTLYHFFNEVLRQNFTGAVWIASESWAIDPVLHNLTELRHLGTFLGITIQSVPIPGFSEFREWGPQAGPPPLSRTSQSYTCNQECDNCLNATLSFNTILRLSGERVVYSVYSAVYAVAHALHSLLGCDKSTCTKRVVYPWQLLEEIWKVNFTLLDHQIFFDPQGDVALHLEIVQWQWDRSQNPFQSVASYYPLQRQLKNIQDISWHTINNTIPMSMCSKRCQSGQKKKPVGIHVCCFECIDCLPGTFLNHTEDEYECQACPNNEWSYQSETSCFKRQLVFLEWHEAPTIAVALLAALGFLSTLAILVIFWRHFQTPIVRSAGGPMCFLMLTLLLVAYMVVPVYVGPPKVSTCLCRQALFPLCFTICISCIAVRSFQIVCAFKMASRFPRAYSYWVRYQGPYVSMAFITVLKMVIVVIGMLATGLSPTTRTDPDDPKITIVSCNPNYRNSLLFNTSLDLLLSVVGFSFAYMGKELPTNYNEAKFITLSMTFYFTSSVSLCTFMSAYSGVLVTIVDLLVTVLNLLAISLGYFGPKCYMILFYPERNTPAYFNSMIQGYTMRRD
T2 sequence (Q7RTX0 21-852): T1 sequence (Q7RTX0 21-852)

Compound | activation of receptor (calcium response) (rTas1r2-hTAS1R3) | activation of receptor (calcium response) (hTAS1R2-hTAS1R3)
COC(=O)[C@H](Cc1ccccc1)NC(=O)[C@@H](N)CC(=O)O [aspartame] (HELM PEPTIDE1{D.F.[CO[*:1]]}$$$$V2.0) | failed to activate | activated the human receptor
COc1ccc(CCC(=O)c2c(O)cc(O[C@@H]3O[C@H](CO)[C@@H](O)[C@H](O)[C@H]3O[C@@H]3O[C@@H](C)[C@H](O)[C@@H](O)[C@H]3O)cc2O)cc1O [neohesperidine dihydrochalcone] | clearly responded | activated the human receptor
OC[C@H]1O[C@@](CO)(O[C@H]2O[C@H](CO)[C@@H](O)[C@H](O)[C@H]2O)[C@@H](O)[C@@H]1O [sucrose] | failed to activate | activated the human receptor

Second part, the compound after the results:

activation of receptor (calcium response) (rTas1r2-hTAS1R3) | activation of receptor (calcium response) (hTAS1R2-hTAS1R3) | Compound
clearly responded | activated the human receptor | O=S(=O)(O)NC1CCCCC1 [cyclamate]
failed to activate | activated the human receptor | C=C1C[C@@]23CC[C@H]4[C@@](C)(CCC[C@@]4(C)C(=O)O[C@@H]4O[C@H](CO)[C@@H](O)[C@H](O)[C@H]4O)[C@@H]2CC[C@]1(O[C@@H]1O[C@H](CO)[C@@H](O)[C@H](O)[C@H]1O[C@@H]1O[C@H](CO)[C@@H](O)[C@H](O)[C@H]1O)C3 [stevioside]
